This note sets out measurements from US9399045B2, “Inhibition of choroidal neovascularization” (Washington University, priority 2011, dated 2016).

For test [1], the system named is ABCG1 expression. Briefly: ABCG1 expression in tissues of old mice after 5 days of intraperitoneal TO-901317. It counts as in vivo, mouse. To be noted: 25 or 50 mg/kg/day for 5 days, FIG. 4e-g and FIG. 10. The method, then: (§1) Total RNA was prepared from splenic macrophage, peritoneal macrophages, retina, choroid or PBMCs using the RNeasy mini kit (Qiagen inc., Valencia, Calif.). cDNA was prepared using the High Capacity cDNA Archive Kit (Applied Biosystems) and PCR amplifications of cDNA were performed using Taqman probe-based gene expression assay (Applied Biosystems) as previously described (Kelly, J., et al., Senescence regulates macrophage activation and angiogenic fate at sites of tissue injury in mice. J Clin Invest 117, 3421-3426, 2007). Primer and probe sets were as follows: ActB. Mm00607939_s1; ABCA1, Mm00442649_ml; ABCG1, Mm01348250_ml; IL-6, Mm00446190_ml; FasL, Mm00438864_ml; IL-10, Mm99999062_ml; 18s rRNA. […]
(§2) Whole cell lysate was extracted from mouse peritoneal macrophages or human PBMCs using lysis buffer (50 mM Tris (pH=7.4), 150 mM NaCl, 1% EDTA, 10% TritonX, and 1% SDS) with proteinase inhibitor (Complete, Roche). […] Proteins were detected and analyzed using the Odyssey Infrared Imaging System (LI-COR Biosciences, Lincoln, Nebr.). Band densities of ABCA1 and ABCG1 were quantified and normalized to β-actin.
(§3) Old mice (>18 months) were given a daily intraperitoneal injection of vehicle, 25 mg/kg or 50 mg/kg TO-901317. After five consecutive days treatment, CNV was induced in one set of mice (5 of each group) and analyzed as described above. […]

For test [2], the system named is choroidal neovascularization (CNV). Briefly: Laser-induced CNV in old mice. In kind it is in vivo, mouse. The following applies: intraperitoneal, 25 or 50 mg/kg/day for 5 days prior to laser, FIG. 4h-i. Here is the method:
Rupture of Bruchs membrane with laser was used to initiate CNV in mice as described previously (Apte R S, Niederkorn J Y. Isolation and characterization of a unique natural killer cell inhibitory factor present in the anterior chamber of the eye. J. Immunol. 156:2667-2673, 1996). Briefly, mice were anesthetized by injecting ketamine hydrochloride (100 mg/kg) and xylazine (13.4 mg/kg) intraperitoneally, and their pupils were dilated with 1% tropicamide. Using argon green laser, four laser burns were placed around the optic nerve (0.1 second, 50 μm, and 110 mW). Seven days after laser, mice were anesthetized as described above and perfused intraventricularly with FITC-dextran (Sigma-Aldrich). Mice were euthanized in a CO2 chamber, and their eyes were harvested for tissue processing. […]
Micro scissors were used to make four radial incisions in the sclerochoroidal “eyecup” to prepare choroidal flat mounts on glass slides. […] The choroidal flat mounts were analyzed for the presence of CNV by confocal microscopy. The extent of choroidal neovascularization was quantified by Metamorph Imaging software. […]
as §3

For test [3], the system named is ABCA1 gene expression. Briefly: ABCA1 gene expression in peritoneal macrophages treated with LXR agonist (real time qPCR). It counts as cell-based, mouse. The following applies: peritoneal young or old macrophages, 24 hours, 0 to 10 μM, FIG. 4a-b. The method, then: (§4) Peritoneal macrophages recruitment was elicited by intraperitoneal injection of 4% thioglycollate. Five days after injection, macrophages were harvested and cultured in RPMI-1640 overnight (Gibco, Grand Island, N.Y.). Macrophages were then washed with RPMI-1640 and non-adherent cells removed. Total RNA was prepared from splenic macrophage, peritoneal macrophages, retina, choroid or PBMCs using the RNeasy mini kit (Qiagen inc., Valencia, Calif.). cDNA was prepared using the High Capacity cDNA Archive Kit (Applied Biosystems) and PCR amplifications of cDNA were performed using Taqman probe-based gene expression assay (Applied Biosystems) as previously described (Kelly, J., et al., Senescence regulates macrophage activation and angiogenic fate at sites of tissue injury in mice. J Clin Invest 117, 3421-3426, 2007). Primer and probe sets were as follows: ActB. Mm00607939_s1; ABCA1, Mm00442649_ml; ABCG1, Mm01348250_ml; IL-6, Mm00446190_ml; FasL, Mm00438864_ml; IL-10, Mm99999062_ml; 18s rRNA. Hs99999901_s1; ABCA1, Hs00442663_ml; ABCG1: Hs 01555199_gl; IL10, Hs00961622_ml. Young and old peritoneal macrophages were treated with Liver X Receptor (LXR) agonist, TO-901317 (Sigma-Aldrich, St. Louis, Mo.) for 24 hours. […] Treated macrophages were analyzed for ABCA1 and ABCG1 gene expression and their ability to inhibit HMVECs proliferation was tested.
(In general: In qPCR the cycle at which signal appears reflects the starting amount.)

The subject of test [4] is ABCG1 gene expression. In words: ABCG1 gene expression in peritoneal macrophages treated with LXR agonist (real time qPCR). In kind it is cell-based, mouse. The following applies: peritoneal young or old macrophages, 24 hours, 0 to 10 μM, FIG. 4a-b. Here is the method:
as §4

Test [5] deals with ABCA1 expression. Briefly: ABCA1 expression in tissues of old mice after 5 days of intraperitoneal TO-901317. It counts as in vivo, mouse. To be noted: 25 or 50 mg/kg/day for 5 days, FIG. 4e-g and FIG. 10. The method, then: as §1, §2, §3
Test [6] deals with HMVECs. Briefly: Vascular endothelial cell proliferation assay: HMVECs co-cultured with treated peritoneal macrophages, [3H] thymidine. It counts as cell-based, human. The method, then:
Cell proliferation was measured with an adaptation of a previously described method (Khan, A. A. & Apte, R. S. An assay for macrophage-mediated regulation of endothelial cell proliferation. Immunobiology 213, 695-699, 2008). HMVECs (1×10^4 cells) in log phase were cultured in 96-well round-bottomed plates for adherence. HMVECS cells were then co-cultured with peritoneal macrophages (1:25 ratio) and incubated with 5 μCi/ml [^3H] thymidine (PerkinElmer) for 24 hours. Cells were harvested onto glass fiber filters (Packard) and incorporated [3H] thymidine was read using TopCount NXT (PerkinElmer).
Young and old peritoneal macrophages were treated with Liver X Receptor (LXR) agonist, TO-901317 (Sigma-Aldrich, St. Louis, Mo.) for 24 hours. LXR agonist was dissolved in DMSO (vehicle) and treatment dosage ranged from 0 to 10 μM. Treated macrophages were analyzed for ABCA1 and ABCG1 gene expression and their ability to inhibit HMVECs proliferation was tested.
Peritoneal macrophages were transfected with 50 nM miScript miR33 inhibitor (anti-miR33) or negative control inhibitor (con anti-miR) using HiPerFect Transfection reagent (Qiagen). The transfection efficiency of macrophages was assessed using BLOCK-iT Fluorescent Oligo (Invitrogen). After miR33 inhibition, target genes and proteins were analyzed by qPCR and Western blot.

SMILES strings stand for the structures.

Regarding `O=S(=O)(c1ccccc1)N(CC(F)(F)F)c1ccc(C(O)(C(F)(F)F)C(F)(F)F)cc1` [TO-901317, N-(2,2,2-trifluoro-ethyl)-N-[4-(2,2,2-tri-fluoro-1-hydroxy-1-trifluoromethyl-ethyl)-phenyl]-benzenesulfonamide], in test [1], the “ABCG1 expression compared to vehicle treated mice” value is reported as “strong systemic upregulation”. Further, the “CNV compared to vehicle treated old mice” value in test [2] was “significant and dose dependent reduction in CNV”. In addition, the ABCA1 gene expression result in test [3] is “dose-dependent upregulation”. Further, in test [4], the ABCG1 gene expression result was “dose-dependent upregulation”. The “ABCA1 expression compared to vehicle treated mice” value in test [5] was “strong systemic upregulation”. Also, the “ability of treated macrophages to inhibit HMVECs proliferation” value in test [6] (Abca1−/− macrophages treated with LXR agonist) was “does not restore their ability to inhibit HMVECs proliferation”. The “ability of treated macrophages to inhibit endothelial cell proliferation” value in test [6] (old macrophages treated with LXR agonist, co-cultured with HMVECs, FIG. 4d) was “completely restored their ability to inhibit endothelial cell proliferation”.
